Values after ≈ are worked out from the molar mass of the structure shown.
Tests used:
[1] = from CO[C@](C)(C[C@@H](C)CN(C)[C@H](CO)CNC(=O)OCc1ccccc1)[C@H](O[C@@H]1O[C@H](C)C[C@H](N(C)C)[C@H]1OC(=O)c1ccccc1)[C@@H](C)C1=C(C)C(=O)OC(C)(C)O1; ester bond; chlorobenzene; 4.0 mM; 165.0 °C; 20.0 h
[2] = test system: S. aureus MP-12; assay: microbe, parasite or virus in culture; format: cell-based; conditions: Staphylococcus aureus, MP12, read-out: MIC S. aureus MP-12
[3] = test system: E. coli MP-4; assay: MIC determination by CLSI broth dilution, E. coli MP-4; format: cell-based; conditions: Escherichia coli, MP4, CLSI broth dilution; strain MP-4
[4] = test system: K. pneumoniae MP-546; assay: MIC determination by CLSI broth dilution, K. pneumoniae MP-546; format: cell-based; conditions: Klebsiella pneumoniae, MP546, CLSI broth dilution; strain MP-546
[5] = test system: K. pneumoniae MP-648; assay: MIC determination by CLSI broth dilution, K. pneumoniae MP-648; format: cell-based; conditions: strain MP-648; for MIC: Klebsiella pneumoniae, MP648, CLSI broth dilution
[6] = test system: P. aeruginosa MP-3; assay: MIC determination by CLSI broth dilution, P. aeruginosa MP-3; format: cell-based; conditions: Pseudomonas aeruginosa, MP3, strain MP-3
[7] = test system: A. baumannii MP-15; assay: MIC determination by CLSI broth dilution, A. baumannii MP-15; format: cell-based; conditions: Acinetobacter baumannii, MP15, strain MP-15, read-out: MIC A. baumanii MP-15

| SMILES | ring closure, yield of all isomers [1] | MIC [2] | MIC [3] | MIC [4] | MIC [5] | MIC [6] | MIC [7] | MIC K. pneumoniae MP-648 ([5]; CLSI broth dilution) |
| --- | --- | --- | --- | --- | --- | --- | --- | --- |
| CO[C@]1(C)C[C@@H](C)CN(C)[C@@H](CNC(=O)OCc2ccccc2)COC(=O)C(C)C(=O)[C@H](C)[C@H]1O[C@@H]1O[C@H](C)C[C@H](N(C)C)[C@H]1OC(=O)c1ccccc1 (stereo partly shown) | 82% | – | – | – | – | – | – | – |
| CO[C@]1(C)C[C@@H](C)CN(CC(C)C)[C@@H](CCCN2CCc3ccccc3C2)COC(=O)C(C)(C)C(=O)[C@H](C)[C@H]1O[C@@H]1O[C@H](C)C[C@H](N(C)C)[C@H]1O [Compound 141, (3S,6R,8R,9R,10R)-3-(3-(3,4-dihydroisoquinolin-2 (1H)-yl)propyl)-9-(((2S,3R,4S,6R)-4-(dimethylamino)-3-hydroxy-6-methyltetrahydro-2H-pyran-2-yl)oxy)-4-isobutyl-8-methoxy-6,8,10,12,12-pentamethyl-1-oxa-4-azacyclotridecane-11,13-dione] | – | < 4 µg/mL | < 4 µg/mL | < 4 µg/mL | 4 to 32 µg/mL (≈ 5.59 to 44.7 µM) | > 32 µg/mL | > 32 µg/mL | – |
| CCCN1C[C@H](C)C[C@@](C)(OC)[C@H](O[C@@H]2O[C@H](C)C[C@H](N(C)C)[C@H]2O)[C@@H](C)C(=O)C(C)(C)C(=O)OC[C@H]1CCCN1CCCC1 [Compound 144, (3R,6R,8R,9R,10R)-9-(((2S,3R,4S,6R)-4-(dimethylamino)-3-hydroxy-6-methyltetrahydro-2H-pyran-2-yl)oxy)-8-methoxy-6,8,10,12,12-pentamethyl-4-propyl-3-(3-(pyrrolidin-1-yl)propyl)-1-oxa-4-azacyclotridecane-11,13-dione] | – | < 4 µg/mL | < 4 µg/mL | < 4 µg/mL | < 4 µg/mL | < 4 µg/mL | > 32 µg/mL | – |
| CCCN1C[C@H](C)C[C@@](C)(OC)[C@H](O[C@@H]2O[C@H](C)C[C@H](N(C)C)[C@H]2O)[C@@H](C)C(=O)C(C)(C)C(=O)OC[C@H]1CCCN1Cc2ccccc2C1 [Compound 145, (3R,6R,8R,9R,10R)-9-(((2S,3R,4S,6R)-4-(dimethylamino)-3-hydroxy-6-methyltetrahydro-2H-pyran-2-yl)oxy)-3-(3-(isoindolin-2-yl)propyl)-8-methoxy-6,8,10,12,12-pentamethyl-4-propyl-1-oxa-4-azacyclotridecane-11,13-dione] | – | < 4 µg/mL | < 4 µg/mL | < 4 µg/mL | < 4 µg/mL | < 4 µg/mL | > 32 µg/mL | – |
| CCN1C[C@H](C)C[C@@](C)(OC)[C@H](O[C@@H]2O[C@H](C)C[C@H](N(C)C)[C@H]2O)[C@@H](C)C(=O)C(C)(C)C(=O)OC[C@H]1[C@H](O)CCN1CCCC1 [Compound 146] | – | 4 to 32 µg/mL (≈ 6.23 to 49.9 µM) | < 4 µg/mL | < 4 µg/mL | < 4 µg/mL | > 32 µg/mL | > 32 µg/mL | – |
| CCN1C[C@H](C)C[C@@](C)(OC)[C@H](O[C@@H]2O[C@H](C)C[C@H](N(C)C)[C@H]2O)[C@@H](C)C(=O)C(C)(C)C(=O)OC[C@H]1[C@@H](CCN1CCCC1)OC [Compound 147] | – | 4 to 32 µg/mL (≈ 6.1 to 48.8 µM) | < 4 µg/mL | 4 to 32 µg/mL (≈ 6.1 to 48.8 µM) | 4 to 32 µg/mL (≈ 6.1 to 48.8 µM) | > 32 µg/mL | > 32 µg/mL | – |
| CO[C@]1(C)C[C@@H](C)CN(C)[C@H](CC2=CCN(CC3CC3)CC2)COC(=O)C(C)(C)C(=O)[C@H](C)[C@H]1O[C@@H]1O[C@H](C)C[C@H](N(C)C)[C@H]1O [Compound 148] | – | 4 to 32 µg/mL (≈ 6.15 to 49.2 µM) | < 4 µg/mL | 4 to 32 µg/mL (≈ 6.15 to 49.2 µM) | 4 to 32 µg/mL (≈ 6.15 to 49.2 µM) | > 32 µg/mL | > 32 µg/mL | – |
| CCCN1CCC(=C[C@@H]2COC(=O)C(C)(C)C(=O)[C@H](C)[C@@H](O[C@@H]3O[C@H](C)C[C@H](N(C)C)[C@H]3O)[C@](C)(OC)C[C@@H](C)CN2C)CC1 [Compound 149] | – | < 4 µg/mL | < 4 µg/mL | < 4 µg/mL | < 4 µg/mL | > 32 µg/mL | > 32 µg/mL | – |
| CO[C@]1(C)C[C@@H](C)CN(C)[C@H](C=C2CCN(CC3CC3)CC2)COC(=O)C(C)(C)C(=O)[C@H](C)[C@H]1O[C@@H]1O[C@H](C)C[C@H](N(C)C)[C@H]1O [Compound 150] | – | 4 to 32 µg/mL (≈ 6.15 to 49.2 µM) | < 4 µg/mL | < 4 µg/mL | 4 to 32 µg/mL (≈ 6.15 to 49.2 µM) | > 32 µg/mL | > 32 µg/mL | – |
| CO[C@]1(C)C[C@@H](C)CN(C)[C@@H](CCCN2CCC2)COC(=O)C(C)(C)C(=O)[C@H](C)[C@H]1O[C@@H]1O[C@H](C)C[C@H](N(C)C)[C@H]1O [Compound 160, (3S,6R,8R,9R,10R)-3-(3-(azetidin-1-yl)propyl)-9-(((2S,3R,4S,6R)-4-(dimethylamino)-3-hydroxy-6-methyltetrahydro-2H-pyran-2-yl)oxy)-8-methoxy-4,6,8,10,12,12-hexamethyl-1-oxa-4-azacyclotridecane-11,13-dione] | – | 4 to 32 µg/mL (≈ 6.69 to 53.5 µM) | < 4 µg/mL | < 4 µg/mL | 4 to 32 µg/mL (≈ 6.69 to 53.5 µM) | > 32 µg/mL | > 32 µg/mL | – |
| CO[C@]1(C)C[C@@H](C)CN(C)[C@H](CCCN2CCCC2)COC(=O)C(C)(C)C(=O)[C@H](C)[C@H]1O[C@@H]1O[C@H](C)C[C@H](N(C)C)[C@H]1O [Compound 161, (3R,6R,8R,9R,10R)-9-(((2S,3R,4S,6R)-4-(dimethylamino)-3-hydroxy-6-methyltetrahydro-2H-pyran-2-yl)oxy)-8-methoxy-4,6,8,10,12,12-hexamethyl-3-(3-(pyrrolidin-1-yl)propyl)-1-oxa-4-azacyclotridecane-11,13-dione] | – | < 4 µg/mL | < 4 µg/mL | < 4 µg/mL | < 4 µg/mL | 4 to 32 µg/mL (≈ 6.54 to 52.3 µM) | > 32 µg/mL | – |
| CCN(C)CC[C@@H](O)[C@@H]1COC(=O)C(C)(C)C(=O)[C@H](C)[C@@H](O[C@@H]2O[C@H](C)C[C@H](N(C)C)[C@H]2O)[C@](C)(OC)C[C@@H](C)CN1CC [Compound 168] | – | 4 to 32 µg/mL (≈ 6.35 to 50.8 µM) | < 4 µg/mL | 4 to 32 µg/mL (≈ 6.35 to 50.8 µM) | < 4 µg/mL | > 32 µg/mL | > 32 µg/mL | – |
| CCCCCCCN1CCC(C[C@@H]2COC(=O)[C@@](C)(Cc3ccccc3)C(=O)[C@H](C)[C@@H](O[C@@H]3O[C@H](C)C[C@H](N(C)C)[C@H]3O)[C@](C)(OC)C[C@@H](C)CN2C)CC1 [Compound 171] | – | 4 to 32 µg/mL (≈ 5.18 to 41.4 µM) | < 4 µg/mL | 4 to 32 µg/mL (≈ 5.18 to 41.4 µM) | 4 to 32 µg/mL (≈ 5.18 to 41.4 µM) | > 32 µg/mL | > 32 µg/mL | – |
| C=C(C)C[C@]1(C)C(=O)OC[C@@H](CC2CCN(CCCCCCC)CC2)N(C)C[C@H](C)C[C@@](C)(OC)[C@H](O[C@@H]2O[C@H](C)C[C@H](N(C)C)[C@H]2O)[C@@H](C)C1=O [Compound 172] | – | 4 to 32 µg/mL (≈ 5.43 to 43.5 µM) | 4 to 32 µg/mL (≈ 5.43 to 43.5 µM) | 4 to 32 µg/mL (≈ 5.43 to 43.5 µM) | – | > 32 µg/mL | > 32 µg/mL | ++ (values of greater than 4 mg/L and less than or equal to 32 mg/L) |
| CCCCCCCN1CCC(C[C@@H]2COC(=O)[C@@](C)(Cl)C(=O)[C@H](C)[C@@H](O[C@@H]3O[C@H](C)C[C@H](N(C)C)[C@H]3O)[C@](C)(OC)C[C@@H](C)CN2C)CC1 [Compound 173] | – | > 32 µg/mL | < 4 µg/mL | < 4 µg/mL | 4 to 32 µg/mL (≈ 5.58 to 44.7 µM) | > 32 µg/mL | > 32 µg/mL | – |
| CCCCCCCN1CCC(C[C@@H]2COC(=O)[C@@](C)(CCC)C(=O)[C@H](C)[C@@H](O[C@@H]3O[C@H](C)C[C@H](N(C)C)[C@H]3O)[C@](C)(OC)C[C@@H](C)CN2C)CC1 [Compound 174] | – | 4 to 32 µg/mL (≈ 5.52 to 44.2 µM) | < 4 µg/mL | 4 to 32 µg/mL (≈ 5.52 to 44.2 µM) | 4 to 32 µg/mL (≈ 5.52 to 44.2 µM) | > 32 µg/mL | > 32 µg/mL | – |
| CCCCCCCN1CCC(C[C@@H]2COC(=O)[C@@](C)(COC)C(=O)[C@H](C)[C@@H](O[C@@H]3O[C@H](C)C[C@H](N(C)C)[C@H]3O)[C@](C)(OC)C[C@@H](C)CN2C)CC1 [Compound 176] | – | > 32 µg/mL | < 4 µg/mL | < 4 µg/mL | 4 to 32 µg/mL (≈ 5.51 to 44.1 µM) | > 32 µg/mL | > 32 µg/mL | – |
| CCCN1C[C@H](C)C[C@@](C)(OC)[C@H](O[C@@H]2O[C@H](C)C[C@H](N(C)C)[C@H]2O)[C@@H](C)C(=O)C(C)(C)C(=O)OC[C@H]1CCCN1CCc2ncncc2C1 [Compound 182, (3R,6R,8R,9R,10R)-3-(3-(7,8-dihydropyrido[4,3-d]pyrimidin-6 (5H)-yl)propyl)-9-(((2S,3R,4S,6R)-4-(dimethylamino)-3-hydroxy-6-methyltetrahydro-2H-pyran-2-yl)oxy)-8-methoxy-6,8,10,12,12-pentamethyl-4-propyl-1-oxa-4-azacyclotridecane-11,13-dione] | – | 4 to 32 µg/mL (≈ 5.68 to 45.5 µM) | < 4 µg/mL | 4 to 32 µg/mL (≈ 5.68 to 45.5 µM) | 4 to 32 µg/mL (≈ 5.68 to 45.5 µM) | > 32 µg/mL | > 32 µg/mL | – |

Source: patent US12552825B2 (Zikani Therapeutics, Inc., priority 2019, dated 2026)
